Patent US20250049948A1, “NOVEL IONIZABLE LIPIDS AND LIPID NANOPARTICLES AND METHODS OF USING THE SAME” (Sail Biomedicines, Inc., priority 2021, published 2025)
“And” between values parts separate entries of the source, which are not always exact repeats. Identical values can stand only once.

Experiments:
[1] = LNP size and polydispersity, Zetasizer Ultra; format: physicochemical
Protocol: (§1) For each LNP composition, the lipid mix and mRNA solution were mixed at a 1:3 ratio by volume, respectively, on a NanoAssemblr Ignite (Precision Nanosystems) at a total flow rate of 9 mL/min. The resulting compositions were then loaded into Slide-A-Lyzer G2 dialysis cassettes (10 k MWCO) and dialyzed in 200 times sample volume of 1×PBS for 2 hours at room temperature with gentle stirring. The PBS was refreshed, and the compositions were further dialyzed for at least 14 hours at 4° C. with gentle stirring. The dialyzed compositions were then collected and concentrated by centrifugation at 3000×g using Amicon Ultra centrifugation filters (100 k MWCO). The concentrated particles were characterized for size, polydispersity, and particle concentration using Zetasizer Ultra (Malvern Panalytical) and for mRNA encapsulation efficiency using Quant-iT RiboGreen RNA Assay Kit (ThermoFisher Scientific).

[2] = mRNA encapsulation efficiency, Quant-iT RiboGreen RNA Assay; format: physicochemical
Protocol: as §1

[3] = test system: Balb/c mice; assay: In-vivo bioluminescent imaging of LNP compositions (Example 6); settings: mRNA dose 5 μg FLUC (CRE/FLUC 1:1 LNP); for Bioluminescence (IV) Liver / Bioluminescence (IV) Lung / Bioluminescence (IV) Spleen / Bioluminescence (IV) Whole Body: 4-6 hours post-dose; for Spleen: Liver Ratio: intravenous
[4] = test system: Balb/c mice; assay: In-vivo bioluminescent imaging of LNP compositions (Example 3); settings: for Bioluminescence, Liver / Bioluminescence, Lung / Bioluminescence, Pancreas / Bioluminescence, Spleen / Bioluminescence, Whole body: LNP with 5 μg Fluc+5 μg EPO mRNA intravenously, 4-6 hours post-dose, two values per compound; for Bioluminescence, Whole body: FIG. 1: average radiance (p/s/cm2/sr); for Organ selectivity of delivery: bioluminescent imaging in mice, Example 3
Text: C12-200 is commercially available ionizable lipid and has a chemical name of 1,1′-((2-(4-(2-((2-(bis(2-hydroxydodecyl)amino)ethyl)(2-hydroxydodecyl) amino)ethyl)piperazin-1-yl)ethyl)azanediyl)bis(dodecan-2-ol). A composition composed of ionizable lipid:structural lipid:sterol:EG-lipid (C12-200:DOPE:cholesterol:14:0 PEG2000 PE) at a molar ratio of 35:16:46.5:2.5, respectively. Lipids were solubilized in ethanol. These lipids were mixed at the above-indicated molar ratios and diluted in ethanol (organic phase) to 5.5 mM total lipid concentration. The mRNA solution (aqueous phase) was prepared with RNAse-free water and 100 mM citrate buffer pH 3 for a final concentration of 50 mM citrate buffer. The ionizable lipid to mRNA N:P ratio maintained at 15:1.
All other compositions (i.e., compositions of MC3 (a commercially available ionizable lipid having a chemical name of (6Z,9Z,28Z,31Z)-heptatriacont-6,9,28,31-tetraene-19-yl 4-(dimethylamino)butanoate, and compositions of novel ionizable lipids 7669, 7671, 7668, […], 7650) were composed of ionizable lipid:structural lipid:sterol:PEG-lipid (SDA lipid #:DSPC:cholesterol:14:0 PEG2000 PE) at a molar ratio of 50:38.5:10:1.5, respectively. Lipids were solubilized in ethanol. Compositions were then handled as above, except the formulations were maintained at ionizable lipid to mRNA N:P ratio of 6:1. The lipid mix and mRNA solution were mixed at a 1:3 ratio by volume, respectively, on a NanoAssemblr Ignite (Precision Nanosystems) at a total flow rate of 9 mL/min. Resulting compositions were then loaded into Slide-A-Lyzer G2 dialysis cassettes (10 k MWCO) and dialyzed in 200 times sample volume of 1×PBS for 4 hrs at room temp with gentle stirring. The PBS was refreshed, and the compositions were further dialyzed for at least 14 hrs at 4° C. with gentle stirring. The dialyzed compositions were then collected and concentrated by centrifugation at 2000×g using Amicon Ultra centrifugation filters (100 k MWCO). Concentrated particles were characterized for size, polydispersity, and particle concentration using Zetasizer Ultra (Malvern Panalytical) and for mRNA encapsulation efficiency using Quant-iT RiboGreen RNA Assay Kit (ThermoFisher Scientific).
8-9 week old female Balb/c mice were utilized for bioluminescence-based ionizable lipid screening efforts. Mice were obtained from Jackson Laboratories (JAX Stock: 000651) and allowed to acclimate for one week prior to manipulations. Animals were placed under a heat lamp for a few minutes before introducing them to a restraining chamber. The tail was wiped with alcohol pads (Fisher Scientific) and 100 μL of a lipid nanoparticle composition described above containing 10 μg total mRNA (5 μg Fluc+5 μg EPO) was injected intravenously using a 29G insulin syringe (Covidien). Any resulting bleeding was stemmed using a sterile gauze pad (Fisher Scientific) and animals were placed back into their home cage. 4-6 hours post-dose, animals were injected with 200 μL of 15 mg/mL D-Luciferin (GoldBio) and placed in an isoflurane induction chamber set to deliver 2.5% isoflurane delivered at an oxygen flow rate of 1-2 liters per min. After 5 minutes of isoflurane exposure, mice were placed in set nose cones inside the IVIS Lumina LT imager (PerkinElmer). LivingImage software was utilized for imaging. Whole body bio-luminescence was captured at auto-exposure after which animals were removed from the IVIS and placed into a CO2 chamber for euthanasia. Cardiac puncture was performed on each animal after placing it in dorsal recumbency, and blood collection was performed using a 25G insulin syringe (BD). Blood was collected in Lithium-Heparin coated tubes (Fisher Scientific) and immediately placed on ice. Once all blood samples were collected, tubes were spun at 2000G for 10 minutes using a tabletop centrifuge and plasma was aliquoted into individual Eppendorf tubes (Fisher Scientific) and stored at −80 C for subsequent EPO quantification. […]

CCCCCC(CCCCC)CCCOC(=O)CCCCCCCN(CCCCCCCC(=O)OCCCC(CCCCC)CCCCC)CCCCN(C)C [Compound 2129, bis(4-pentylnonyl) 8,8′-((4-(dimethylamino)butyl)azanediyl) dioctanoate]
PDI ([1]; LNP with CRE/FLUC 1:1 mRNA): 0.07
Size (nm) ([1]; LNP with CRE/FLUC 1:1 mRNA): 81.1 nm
% EE ([2]; LNP with CRE/FLUC 1:1 mRNA): 97.0%
Bioluminescence (IV) Liver [3]: 1.4E + 05
Bioluminescence (IV) Lung [3]: 2.1E + 03
Bioluminescence (IV) Spleen [3]: 9.2E + 03
Bioluminescence (IV) Whole Body [3]: 1.9E + 04
Spleen: Liver Ratio [3]: 0.066

CCCCCCC(CCCCCC)CCCOC(=O)CCCCCN(CCCCCC(=O)OCCCC(CCCCCC)CCCCCC)CCCCN(C)C [Compound 2131, bis(4-hexyldecyl) 6,6′-((4-(dimethylamino)butyl)azanediyl) dihexanoate]
PDI ([1]; LNP with CRE/FLUC 1:1 mRNA): 0.13
Size (nm) ([1]; LNP with CRE/FLUC 1:1 mRNA): 71.2 nm
% EE ([2]; LNP with CRE/FLUC 1:1 mRNA): 97.1%
Bioluminescence (IV) Liver [3]: 1.3E + 05
Bioluminescence (IV) Lung [3]: 2.4E + 03
Bioluminescence (IV) Spleen [3]: 9.5E + 03
Bioluminescence (IV) Whole Body [3]: 1.2E + 04
Spleen: Liver Ratio [3]: 0.076

CCCCCC(CCCCC)CCCOC(=O)CCCCCCCN(CCCCCCCC(=O)OCCCC(CCCCC)CCCCC)C(=O)CCCN(C)C [Compound 2132, bis(4-pentylnonyl) 8,8′-((4-(dimethylamino)butanoyl)azanediyl) dioctanoate]
PDI ([1]; LNP with CRE/FLUC 1:1 mRNA): 0.13
Size (nm) ([1]; LNP with CRE/FLUC 1:1 mRNA): 76.3 nm
PDI ([1]; LNP with EGFP mRNA): 0.20
Size (nm) ([1]; LNP with EGFP mRNA): 90.4 nm
% EE ([2]; LNP with CRE/FLUC 1:1 mRNA): 97.7%
% EE ([2]; LNP with EGFP mRNA): 97.2%
Bioluminescence (IV) Liver [3]: 1.4E + 05
Bioluminescence (IV) Lung [3]: 1.7E + 03
Bioluminescence (IV) Spleen [3]: 2.5E + 04
Bioluminescence (IV) Whole Body [3]: 7.0E + 03
Spleen: Liver Ratio [3]: 0.212

CCCCCC(CCCCC)CCCOC(=O)CCCCCCCN(CCO)CCCCCCCC(=O)OCCCC(CCCCC)CCCCC [Compound 2135, bis(4-pentylnonyl) 8,8′-((2-hydroxyethyl)azanediyl)dioctanoate]
PDI ([1]; LNP with EGFP mRNA): 0.04
Size (nm) ([1]; LNP with EGFP mRNA): 81.8 nm
% EE ([2]; LNP with EGFP mRNA): 96.2%

CCCCCCC(CCCCCC)CCCOC(=O)CCCCCCCN(CCO)CCCCCCCC(=O)OCCCC(CCCCCC)CCCCCC [Compound 2136, bis(4-hexyldecyl) 8,8′-((2-hydroxyethyl)azanediyl)dioctanoate]
PDI ([1]; LNP with EGFP mRNA): 0.04
Size (nm) ([1]; LNP with EGFP mRNA): 77.5 nm
% EE ([2]; LNP with EGFP mRNA): 95.5%

CCCCCC(CCCCC)CCCN(C)C(=O)CCCCCCCN(CCCCCCCC(=O)N(C)CCCC(CCCCC)CCCCC)C(=O)CCN1CCCC1 [Compound 2242, N-methyl-8-(N-(8-(methyl(4-pentylnonyl)amino)-8-oxooctyl)-3-(pyrrolidin-1-yl)propanamido)-N-(4-pentylnonyl)octanamide]
PDI ([1]; LNP with FLUC/EPO 1:1 mRNA): 0.079
Size (nm) ([1]; LNP with FLUC/EPO 1:1 mRNA): 154.2 nm
% EE ([2]; LNP with FLUC/EPO 1:1 mRNA): 89.5%

CCCCCCC(CCCCCC)CCCOC(=O)CCCCCCCN(CCCCCCCC(=O)OCCCC(CCCCCC)CCCCCC)CCCCN(C)C [Compound 7650, 4-hexyldecyl 8-[4-(dimethylamino)butyl-[8-(4-hexyldecoxy)-8-oxo-octyl]amino]octanoate]
Bioluminescence, Liver [4]: 56300 and 83100
Bioluminescence, Lung [4]: 150000 and 138000
Bioluminescence, Pancreas [4]: 127000 and 87200
Bioluminescence, Spleen [4]: 82400 and 108000
Bioluminescence, Whole body [4]: 12100 and 10900
Organ selectivity of delivery [4]: selectively targeted the pancreas and lung over the whole body, liver, or spleen

CCCCCCC(CCCCCC)CCCOC(=O)CCCCCCCN(CCCCCCCC(=O)OCCCC(CCCCCC)CCCCCC)C(=O)CCCN(C)C [Compound 7668, 4-hexyldecyl 8-[4-(dimethylamino)butanoyl-[8-(4-hexyldecoxy)-8-oxo-octyl]amino]octanoate]
Bioluminescence, Spleen [4]: 56400 and 60500
Bioluminescence, Whole body [4]: 48500 and 26900
Organ selectivity of delivery [4]: selectively targeted the pancreas and lung over the whole body, liver, or spleen

CCCCCCC(CCCCCC)CCCOC(=O)CCCCCCCN(CCCCCCCC(=O)OCCCC(CCCCCC)CCCCCC)CCOCCOCCN(C)C [Compound 7669, 4-hexyldecyl 8-[2-[2-[2-(dimethylamino)ethoxy]ethoxy]ethyl-[8-(4-hexyldecoxy)-8-oxo-octyl]amino]octanoate]
Bioluminescence, Liver [4]: 92400 and 129000
Bioluminescence, Lung [4]: 73000 and 70100
Bioluminescence, Pancreas [4]: 106000 and 87800
Bioluminescence, Spleen [4]: 112000 and 91700
Bioluminescence, Whole body [4]: 5120 and 2920
Organ selectivity of delivery [4]: selectively targeted the pancreas and lung over the whole body, liver, or spleen

CCCCCCC(CCCCCC)CCCOC(=O)CCCCCCCN(CCCCCCCC(=O)OCCCC(CCCCCC)CCCCCC)C(=O)CCN1CCCC1 [Compound 7671, 4-hexyldecyl 8-[[8-(4-hexyldecoxy)-8-oxo-octyl]-(3-pyrrolidin-1-ylpropanoyl)amino]octanoate]
Bioluminescence, Liver [4]: 296000 and 184000
Bioluminescence, Lung [4]: 215000 and 180000
Bioluminescence, Pancreas [4]: 141000 and 185000
Bioluminescence, Spleen [4]: 422000 and 574000
Bioluminescence, Whole body [4]: 780000 and 772000
Organ selectivity of delivery [4]: selectively targeted the pancreas and lung over the whole body, liver, or spleen

CCCCCCC(CCCCCC)CCCOC(=O)CCCCCCCN(CCCCCCCC(=O)OCCCC(CCCCCC)CCCCCC)CCC(O)CN(C)C (stereo not shown) [Compound 7676, 4-hexyldecyl 8-[[4-(dimethylamino)-3-hydroxy-butyl]-[8-(4-hexyldecoxy)-8-oxo-octyl]amino]octanoate]
Bioluminescence, Liver [4]: 183000 and 161000
Bioluminescence, Lung [4]: 262000 and 170000
Bioluminescence, Pancreas [4]: 177000 and 220000
Bioluminescence, Spleen [4]: 255000 and 259000
Bioluminescence, Whole body [4]: 50900 and 30400
Organ selectivity of delivery [4]: selectively targeted the pancreas and lung over the whole body, liver, or spleen

CCCCCCCCCCC(O)CN(CCN1CCN(CCN(CC(O)CCCCCCCCCC)CC(O)CCCCCCCCCC)CC1)CCN(CC(O)CCCCCCCCCC)CC(O)CCCCCCCCCC (stereo not shown) [Compound C12-200, 1,1′-((2-(4-(2-((2-(bis(2-hydroxydodecyl)amino)ethyl)(2-hydroxydodecyl)amino)ethyl)piperazin-1-yl)ethyl)azanediyl)bis(dodecan-2-ol), reference compound]
Bioluminescence, Liver [4]: 92300000 and 69700000
Bioluminescence, Pancreas [4]: 236000 and 216000
Bioluminescence, Spleen [4]: 1280000 and 1390000

CCCCC/C=C\C/C=C\CCCCCCCCC(CCCCCCCC/C=C\C/C=C\CCCCC)OC(=O)CCCN(C)C [MC3, (6Z,9Z,28Z,31Z)-heptatriacont-6,9,28,31-tetraene-19-yl 4-(dimethylamino)butanoate, reference compound]
Bioluminescence, Liver [4]: 22000000 and 20300000
Bioluminescence, Lung [4]: 300000 and 258000
Bioluminescence, Pancreas [4]: 192000 and 232000
Bioluminescence, Spleen [4]: 1660000 and 2060000
